Converted amounts (≈) assume the structure as drawn.
Legend:
Assay in all cases: MIC determination, CLSI standard method
Type in all cases: cell-based
E. faecium SR7940 (VRE) = conditions: Enterococcus faecium, cation-adjusted Mueller Hinton Broth, inoculum about 5×10^5 CFU/mL
Description: (§1) The compounds of the above Examples were tested for antimicrobial activity.
(§2) Minimal inhibitory concentration (MIC: μg/ml) against different strains of bacteria was determined according to the standard method recommended by CLSI (clinical and laboratory standards institute). The samples used were prepared by dissolving the compound in DMSO at the concentration 1280 μg/mL, followed by a two fold serial dilution with DMSO. The sample was added to a bacteria suspension at the concentration of 5%, and MIC was determined. Cation-adjusted Mueller Hinton Broth was used as a culture media. The inoculation concentration was about 5×10^5 CFU/mL.

S. aureus NRS271 (LZD-R) = conditions: Staphylococcus aureus, cation-adjusted Mueller Hinton Broth, inoculum about 5×10^5 CFU/mL
Description: as §1, §2

S. aureus SR3637 (MRSA) = conditions: Staphylococcus aureus, cation-adjusted Mueller Hinton Broth, inoculum about 5×10^5 CFU/mL
Description: as §1, §2

SMILES	MIC (E. faecium SR7940 (VRE)) [µg/mL]	MIC (S. aureus NRS271 (LZD-R)) [µg/mL]	MIC (S. aureus SR3637 (MRSA)) [µg/mL]
CC(=O)NC[C@H]1CN(c2ccc(N3CCOCC3)c(F)c2)C(=O)O1 [Linezolid, (S)-n-[[3-[3-fluoro-4-(4-morpholinyl)phenyl]-2-oxo-5-oxazolidinyl]methyl]acetamide]	2 (≈ 5.93 µM)	32 (≈ 94.9 µM)	2 (≈ 5.93 µM)
CC(=O)NC[C@H]1CN(c2ccc(-c3ccn4ccnc4c3)c(F)c2)C(=O)O1 [Example 18]	0.25 (≈ 0.679 µM)	2 (≈ 5.43 µM)	0.25 (≈ 0.679 µM)

Reference: patent publication US8575337B2, “Oxazolidinone derivative having fused ring” (Research Foundation Itsuu Laboratory, priority 2008, dated 2013)
